Measured values from patent US20160008431A1, “Tumor Therapy With Antitumor Agents In Combination With Sindbis Virus-Based Vectors” (priority 2008, published 2016).
Entries after “also recorded” stand apart in the source; their conditions may differ.

Legend:
[1] = system: s.c. N2a tumors; experiment: s.c. N2a neuroblastoma model: vascular leakiness, vector transduction, tumor growth; type: in vivo, SCID mice; conditions: for tumor vascular permeability / leakiness (AngioSense signals): metronomic i.p. Paclitaxel 16 mg/Kg or Cisplatin 4 mg/Kg
Description: FIG. 7A-7D. […] We used 1:1 RD-Sindbis/LacZ:RC-Sindbis/Fluc mixture as a control. AngioSense® 750 (0.66 nmol) was i.v. injected on day 1. […] B, quantitative presentation of luciferase signals in tumors. C and D, quantitative presentation of AngioSense® signals of tumors receiving indicated treatments.
A, relative growth curves of s.c. N2a tumors treated with Paclitaxel alone (Taxol®) or untreated (Ctrl). B, relative tumor growth curves of different treatment groups as in FIG. 5.
FIG. 9A-9C. […] Starting on day 0, daily treatments of Cisplatin (4 mg/Kg or 12 mg/m^2 compared with maximum tolerated dose of 100 mg/m^2 in humans) were i.p. injected into SCID mice bearing s.c. N2a tumors. One last Cisplatin treatment was administrated on day 4. A, to visualize vascular leakiness, AngioSense® 750 (0.66 nmol) was i.v. injected on day 1 and imaged on day 2. B, RC-Sindbis/Fluc was i.v. injected on day 0 and day 2. Luciferase activities in tumors that indicated active vector propagation were monitored on day 3. C, relative tumor growth curves of different treatment groups.
All animal experiments were performed in accordance with NIH and institutional guidelines. BHK cells (1.5×10^6/mouse) were s.c. inoculated into SCID mice (female, 6-8 week old, Taconic, Germantown, N.Y.). The mouse neuroblastoma tumors were induced by s.c. injection of 1.5×10^6 N2a cells into SCID mice 13 days prior to treatments. For better visualization, we remove excessive fur on the skin over the tumor and its surrounding region. The setting for dual mPlum/AngioSense imaging is as following: ex605/em660, 680 and 700 nm, followed by ex745/em800, 820 and 840 nm. Bioluminescent imaging of luciferase activities was performed as described before (7). Tumor sizes were measured using the formula: π/6×length (mm)×width (mm)^2.
In order to test whether chemotherapeutic agents synergize with Sindbis vector in tumor eradication by modulating vascular leakiness, we used a s.c. mouse N2a neuroblastoma model.
We used a replication-competent (RC) Sindbis/Fluc vector (21) instead of an RD one to further enhance the tumor transduction signal output (FIG. 7B) in N2a tumors. RC vector carries a full set of viral structural genes to support its replication. Specific tumor infection of RC vector could result in oncolytic effects by intratumoral vector replication and amplification. […] To ensure temporary expression of VEGF, we used replication defective RD-Sindbis/VEGF mixed with RC-Sindbis/Fluc (1:1).

[2] = in human; cited from earlier work
[3] = system: cancer cells; experiment: Pretreatment of cancer cells with drug, susceptibility to Sindbis vector; type: cell-based; conditions: data not shown
[4] = system: ES2/Fluc tumors; experiment: Sindbis+Taxol ES2/Fluc tumor growth and survival experiment; type: in vivo, SCID mice
Description: FIG. 2A-2D: Survival and tumor load in tumor-bearing mice treated with Sindbis+Taxol®. Mice were injected with 4×10^6 ES2/Fluc cells on day 0. Mice were then divided into 4 groups of 9. Mice were treated with Sindbis/LacZ (I.P.) daily from day 1 to day 11, and with Taxol® (0.4 mg/mouse) on day 3, 6 and 10. (B) Quantitative analysis of tumor growth, day 1 tumor load signal was set at 100% for each individual mouse for comparison with later images (day 3, 6, and 10). (C) Mouse survival was monitored. (D) The surviving mice were imaged on day 46 to determine if they have any tumors.
Sindbis+Taxol® ES2/Fluc tumor growth and survival experiment: Female SCID mice (8-12 weeks old) received intraperitoneal injections of 4×10^6 ES2/Fluc cells on day 0, and tumor growth was validated by imaging the mice on day 1. For quantitative analysis of tumor growth, day 1 tumor load signal was set as 100% for each individual mouse for comparison with subsequent images. Mice (nine per group) were treated with Sindbis/LacZ (I.P.) daily from day 1 to day 11, and with Taxol® (0.4 mg/mouse) on day 3, 6 and 10. Mice were imaged on days 1, 3, 6, 10, and 46. A tumor free mouse was used as a negative control.

[5] = system: endothelium cells; conditions: cited from earlier work
[6] = system: luciferase-expressing Mia Paca cells; experiment: Mia Paca pancreatic cancer model, Sindbis vectors with and without CPT-11; type: in vivo, Es1/SCID mice; conditions: treated 4 times a week for 2 weeks; images since day 18
Description: FIG. 3 is a graph showing the effect of Sindbis virus vectors with and without CPT-11 treatment on pancreatic cancer in Mia Paca mice, a model for pancreatic cancer.
Female Es1/SCID mice were inoculated intraperitoneally with 5 million luciferase-expressing Mia Paca cells (a model for pancreatic cancer) on day 0. Mice were then divided into 4 groups: Mock (untreated), Sindbis/LacZ treated, CPT-11 treated, and Sindbis/LacZ+CPT-11 treated. The mice were treated 4 times a week, for 2 weeks, and then the treatment was stopped.

[7] = system: ES2/Fluc tumors; experiment: Sindbis+CPT-11 ES2/Fluc tumor survival experiment; type: in vivo, Es1^c/SCID mice; conditions: untreated mice survived about 4 weeks; i.p. treatment 4 times a week for 5 weeks from day 5
Description: FIGS. 1A and 1B: Survival of tumor-bearing mice treated with Sindbis+CPT-11. (A) Mice were injected with 1.5×10^6 ES2/Fluc cells on day 0. Mice were then divided into 4 groups of 10. Treatment started on day 5, and lasted for 5 weeks, in which mice were treated 4 times a week. Mice treated with Sindbis/LacZ received I.P. injection of ˜10^7 plaque-forming units of the vector in 0.5 mL OptiMEM; mice treated with CPT-11 received I.P. injections of 15 mg/kg body weight of the recipient of CPT-11 in […]. Mice treated with the combined treatments were treated with Sindbis/LacZ and CPT-11 on the same day (Sindbis/LacZ in the morning, and CPT-11 in the evening). […] The experiment was repeated twice (for a total of 20 mice per group), and the results were combined into one graph. (B) Tumor load in mice treated with Sindbis/LacZ+CPT-11. On day 4 after injecting the mice with 10 million ES2/Fluc cells, tumors developed in various IP locations (top). […]
C.B-17 SCID mice (Taconic, Germantown, N.Y.) were bred with a plasma esterase deficient mouse model—Es1^c Foxn1^nu/J (Jackson laboratory, Bar Harbor, Me.). […] Briefly, blood was collected from F2 mice, and was tested by FACS analysis to determine T and B cell levels, and the plasma esterase activity was measured using a nitrophenyl acetate assay (Spectrum, Gardena, Calif.). […]

N.N.[Cl][Pt][Cl] [Cisplatin]
Sindbis vector delivery and transduction (luciferase signals in tumors) ([1]; RC-Sindbis/Fluc vector): enhanced | tumor vascular permeability / leakiness (AngioSense signals) [1]: significantly increased; also recorded: enhancement in tumor vascular leakiness | therapeutic efficacy in combination with Sindbis vectors ([1]; relative tumor growth curves, FIG. 8B, 9C): better therapeutic efficacy | maximum tolerated dose [2]: 100 mg/m^2

CC(=O)O[C@H]1C(=O)[C@@]2(C)[C@H]([C@H](OC(=O)c3ccccc3)[C@]3(O)C[C@H](OC(=O)[C@H](O)[C@@H](NC(=O)c4ccccc4)c4ccccc4)C(C)=C1C3(C)C)[C@]1(OC(C)=O)CO[C@@H]1C[C@@H]2O [Paclitaxel]
susceptibility of pretreated cancer cells to Sindbis vector [3]: does not enhance | tumor vascular permeability / leakiness (AngioSense signals) [1]: significantly increased; also recorded: enhance tumor vascular leakiness | tumor growth, drug alone ([1]; relative growth curves, FIG. 8A): suppresses tumor growth | tumor level of survivors on day 46 ([4]; IVIS imaging, compared with tumor-free mouse): much higher tumor levels | tumor load / tumor growth by imaging ([4]; days 3, 6 and 10, day 1 signal set at 100%): still show tumor growth | mice surviving on day 46 ([4]; nine mice per group, treatment stopped for 35 days): one | maximum tolerated dose [2]: 175 mg/m^2 | sensitivity of endothelium cells relative to tumor cells, times more sensitive [5]: 10-100

CCc1c2c(nc3ccc(OC(=O)N4CCC(N5CCCCC5)CC4)cc13)-c1cc3c(c(=O)n1C2)COC(=O)[C@]3(O)CC [CPT-11, irinotecan]
tumor status on images [6]: have tumors that appear to be growing | additional survival compared with untreated mice [7]: 15 days
